ChEMBL document CHEMBL1201862, “PubChem BioAssay data set” (2004)
Activity calls are given as the source filed them.

Legend:
[1] = target: Dual specificity protein phosphatase 3 (Homo sapiens, UniProt P51452); experiment: SAR VHR1 Fluorescent Assay for In Vitro dose response studies Set 3. [Related pubchem assays (depositor defined):AID1654, AID1661, AID1878]; type: functional
Phospholipase D2 [2] = target: T1, Phospholipase D2 (Homo sapiens, UniProt O14939); experiment: PLD2 inhibitor potency in cells, dose response (AID 602147); type: functional;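 also: cellular assay in HEK293 cells overexpressing GFP-tagged PLD2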
T1 sequence (O14939 whole entry): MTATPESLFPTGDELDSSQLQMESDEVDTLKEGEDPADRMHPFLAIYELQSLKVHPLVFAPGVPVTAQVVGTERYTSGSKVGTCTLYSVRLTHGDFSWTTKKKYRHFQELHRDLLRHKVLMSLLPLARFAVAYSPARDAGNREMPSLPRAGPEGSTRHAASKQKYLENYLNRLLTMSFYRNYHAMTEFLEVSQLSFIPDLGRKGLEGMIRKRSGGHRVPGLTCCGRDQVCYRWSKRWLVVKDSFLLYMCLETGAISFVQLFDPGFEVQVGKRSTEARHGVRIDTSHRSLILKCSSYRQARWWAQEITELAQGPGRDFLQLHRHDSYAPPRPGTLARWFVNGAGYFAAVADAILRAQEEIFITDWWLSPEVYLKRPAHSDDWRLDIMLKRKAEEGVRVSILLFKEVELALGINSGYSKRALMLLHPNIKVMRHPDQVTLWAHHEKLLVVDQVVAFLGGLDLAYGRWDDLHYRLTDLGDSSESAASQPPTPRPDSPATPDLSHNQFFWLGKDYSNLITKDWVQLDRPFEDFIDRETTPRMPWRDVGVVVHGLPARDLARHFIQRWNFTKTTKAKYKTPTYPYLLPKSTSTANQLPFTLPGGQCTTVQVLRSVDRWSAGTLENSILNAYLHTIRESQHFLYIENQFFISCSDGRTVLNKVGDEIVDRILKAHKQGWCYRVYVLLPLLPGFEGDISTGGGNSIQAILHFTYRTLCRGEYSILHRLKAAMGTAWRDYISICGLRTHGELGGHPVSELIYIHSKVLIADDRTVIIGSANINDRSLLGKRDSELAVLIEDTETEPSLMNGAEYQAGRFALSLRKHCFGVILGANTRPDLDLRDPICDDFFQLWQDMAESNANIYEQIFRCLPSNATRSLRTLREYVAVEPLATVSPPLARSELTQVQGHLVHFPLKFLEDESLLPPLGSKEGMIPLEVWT

Phospholipase D1 [3] = target: T2, Phospholipase D1 (Homo sapiens, UniProt Q13393); experiment: PLD1 inhibitor potency in cells, dose response (AID 602151); type: functional;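 also: cellular PLD1 assay in Calu-1 cells stimulated with PMA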
T2 sequence (Q13393 whole entry): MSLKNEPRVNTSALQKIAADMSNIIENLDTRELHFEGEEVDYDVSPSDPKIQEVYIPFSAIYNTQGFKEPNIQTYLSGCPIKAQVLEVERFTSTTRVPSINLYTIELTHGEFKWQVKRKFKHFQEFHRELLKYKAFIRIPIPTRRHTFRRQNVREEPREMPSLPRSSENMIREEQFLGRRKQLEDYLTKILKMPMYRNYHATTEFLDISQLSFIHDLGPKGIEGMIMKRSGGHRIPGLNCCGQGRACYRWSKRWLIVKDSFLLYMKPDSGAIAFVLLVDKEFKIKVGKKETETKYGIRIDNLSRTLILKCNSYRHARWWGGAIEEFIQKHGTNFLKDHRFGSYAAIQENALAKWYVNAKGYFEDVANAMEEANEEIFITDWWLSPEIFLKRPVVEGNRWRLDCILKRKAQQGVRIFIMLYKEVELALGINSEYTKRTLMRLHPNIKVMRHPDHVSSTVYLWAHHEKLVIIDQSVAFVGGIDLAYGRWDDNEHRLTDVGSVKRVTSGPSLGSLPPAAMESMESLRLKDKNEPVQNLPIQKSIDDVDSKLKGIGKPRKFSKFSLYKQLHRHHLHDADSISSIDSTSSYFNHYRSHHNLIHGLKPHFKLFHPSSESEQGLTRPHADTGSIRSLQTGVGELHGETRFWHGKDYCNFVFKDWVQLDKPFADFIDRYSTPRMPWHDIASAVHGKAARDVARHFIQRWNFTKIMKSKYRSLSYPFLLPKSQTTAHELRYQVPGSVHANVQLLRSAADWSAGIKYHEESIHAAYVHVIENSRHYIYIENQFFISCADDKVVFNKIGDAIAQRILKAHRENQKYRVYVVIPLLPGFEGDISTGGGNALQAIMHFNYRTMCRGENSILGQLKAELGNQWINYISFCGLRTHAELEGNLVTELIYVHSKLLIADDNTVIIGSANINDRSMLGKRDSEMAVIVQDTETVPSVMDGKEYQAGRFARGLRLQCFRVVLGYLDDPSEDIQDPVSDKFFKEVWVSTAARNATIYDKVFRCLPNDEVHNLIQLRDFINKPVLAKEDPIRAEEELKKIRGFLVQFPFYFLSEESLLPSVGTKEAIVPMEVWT

Hexokinase-1 = Hexokinase-1 (Homo sapiens, UniProt P19367); experiment: HK1 enzyme inhibition by HKDC1 hits, SAR follow-up, selectivity assay for HKDC1 inhibitor project, biochemical, set 2, resazurin fluorescence coupled readout (AID 588356); type: functional
Sequence of Hexokinase-1 (P19367 whole entry): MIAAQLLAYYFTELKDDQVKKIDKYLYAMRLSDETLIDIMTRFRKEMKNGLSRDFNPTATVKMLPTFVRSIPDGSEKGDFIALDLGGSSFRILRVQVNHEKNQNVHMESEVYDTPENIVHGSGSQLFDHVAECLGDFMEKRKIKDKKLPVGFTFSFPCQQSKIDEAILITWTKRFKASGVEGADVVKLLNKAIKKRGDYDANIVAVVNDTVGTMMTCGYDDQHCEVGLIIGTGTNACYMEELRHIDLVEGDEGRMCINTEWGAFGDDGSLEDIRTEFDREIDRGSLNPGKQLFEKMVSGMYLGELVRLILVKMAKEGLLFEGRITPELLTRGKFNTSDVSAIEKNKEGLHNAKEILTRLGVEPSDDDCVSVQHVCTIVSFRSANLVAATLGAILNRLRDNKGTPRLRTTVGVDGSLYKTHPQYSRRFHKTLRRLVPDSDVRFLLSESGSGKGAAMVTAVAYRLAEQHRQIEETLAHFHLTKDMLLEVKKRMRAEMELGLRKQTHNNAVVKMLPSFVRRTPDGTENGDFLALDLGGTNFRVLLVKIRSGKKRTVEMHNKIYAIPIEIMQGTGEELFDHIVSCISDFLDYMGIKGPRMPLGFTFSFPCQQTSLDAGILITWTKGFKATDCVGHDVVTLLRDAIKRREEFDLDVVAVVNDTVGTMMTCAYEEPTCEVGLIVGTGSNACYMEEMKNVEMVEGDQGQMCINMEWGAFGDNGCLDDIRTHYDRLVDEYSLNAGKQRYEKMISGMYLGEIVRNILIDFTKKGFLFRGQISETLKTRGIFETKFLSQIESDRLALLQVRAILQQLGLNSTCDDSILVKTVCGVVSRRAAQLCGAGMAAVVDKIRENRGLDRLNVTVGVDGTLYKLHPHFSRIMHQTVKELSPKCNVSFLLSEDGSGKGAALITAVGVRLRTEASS

Hexokinase HKDC1 = target: T3, Hexokinase HKDC1 (Homo sapiens, UniProt Q2TB90); experiment: HKDC1 hexokinase inhibitors, SAR follow-up, biochemical, set 2 (AID 588355); type: functional
T3 sequence (Q2TB90 whole entry): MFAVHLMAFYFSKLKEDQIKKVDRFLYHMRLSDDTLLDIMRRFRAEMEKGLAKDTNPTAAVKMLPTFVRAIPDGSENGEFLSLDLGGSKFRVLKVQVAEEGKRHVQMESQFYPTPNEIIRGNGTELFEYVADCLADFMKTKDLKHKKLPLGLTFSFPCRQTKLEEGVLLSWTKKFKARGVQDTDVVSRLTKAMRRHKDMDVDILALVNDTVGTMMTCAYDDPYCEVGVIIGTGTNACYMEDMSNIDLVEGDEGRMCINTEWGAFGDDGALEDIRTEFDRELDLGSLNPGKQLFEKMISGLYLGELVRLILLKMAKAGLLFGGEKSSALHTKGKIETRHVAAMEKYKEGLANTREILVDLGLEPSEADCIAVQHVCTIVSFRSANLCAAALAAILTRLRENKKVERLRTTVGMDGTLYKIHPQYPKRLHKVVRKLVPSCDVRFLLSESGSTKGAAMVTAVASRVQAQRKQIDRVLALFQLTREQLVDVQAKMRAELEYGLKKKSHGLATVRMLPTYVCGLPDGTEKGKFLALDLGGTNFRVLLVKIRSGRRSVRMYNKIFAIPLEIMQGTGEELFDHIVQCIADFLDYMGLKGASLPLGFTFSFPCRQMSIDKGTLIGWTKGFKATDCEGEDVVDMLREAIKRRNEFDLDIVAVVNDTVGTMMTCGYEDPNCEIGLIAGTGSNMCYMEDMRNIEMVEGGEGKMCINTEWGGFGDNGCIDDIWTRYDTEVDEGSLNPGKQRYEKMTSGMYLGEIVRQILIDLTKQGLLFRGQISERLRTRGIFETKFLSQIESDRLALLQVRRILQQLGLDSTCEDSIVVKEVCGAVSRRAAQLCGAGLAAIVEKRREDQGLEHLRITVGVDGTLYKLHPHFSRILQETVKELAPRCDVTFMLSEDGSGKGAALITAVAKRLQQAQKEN

Phospholipase D1 [4] = target: T2, Phospholipase D1; experiment: PLD1 purified enzyme concentration response. [Related pubchem assays (depositor defined):AID588854]; type: functional
Phospholipase D2 [5] = target: T1, Phospholipase D2; experiment: PLD2 purified enzyme concentration response. [Related pubchem assays (depositor defined):AID588854]; type: functional
H4 = experiment: Inhibitors of Prion Protein 5' UTR mRNA Measured in Cell-Based System Using Plate Reader - 2078-01_Inhibitor_Dose_DryPowder_Activity. [Related pubchem assays (depositor defined):AID488894]; type: functional; conditions: Homo sapiens
INS1 = experiment: protection of INS-1E cells from cytokine death, dose response, ATP luminescence, dry powder (AID 488844); type: functional, cell-based; conditions: Rattus norvegicus

Sequence of Dual specificity protein phosphatase 3 (P51452 whole entry): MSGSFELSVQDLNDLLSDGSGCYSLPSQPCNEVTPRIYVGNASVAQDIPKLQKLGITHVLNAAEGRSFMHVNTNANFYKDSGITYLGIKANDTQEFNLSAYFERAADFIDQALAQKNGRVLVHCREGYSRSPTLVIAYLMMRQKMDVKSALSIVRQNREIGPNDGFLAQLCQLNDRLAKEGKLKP

## COc1ccc(-c2nnc(Nc3nc4c(F)cccc4s3)o2)c(OC)c1
[1]
  IC50: 13.7 µM (active)

## C[C@@H](CN1CCC2(CC1)C(=O)NCN2c1ccc(F)c(F)c1)NC(=O)c1cc2cc(F)ccc2[nH]1
Phospholipase D2 [2]
  IC50: 0.032 µM (active)
Phospholipase D1 [3]
  IC50: 0.005 µM (active)

## CC(=O)NC1C(=O)N(CCN2CCOCC2)c2ccccc21 (centres undefined)
Hexokinase-1
  IC50: > 80 µM (inactive)
Hexokinase HKDC1
  IC50: > 80 µM (inactive)

## O=C(NCCN1CCC2(CC1)C(=O)NCN2c1ccc(Br)cc1)c1cc2cc(F)ccc2[nH]1
Phospholipase D1 [4]
  IC50: 5 µM (active)
Phospholipase D2 [5]
  IC50: 0.028 µM (active)

## COc1ccc(NC=C2C(=O)c3ccccc3C2=O)c(OC)c1
H4
  AC50: 1.75 µM (active)

## C[C@@H]1CN([C@@H](C)CO)C(=O)c2cccc(NC(=O)Nc3ccccc3)c2O[C@H]1CN(C)S(=O)(=O)c1ccc(F)cc1
INS1
  AC50: 61.3 µM (active)
